From PubChem BioAssay (NCI)
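1) Cells in 96-well plates. 2) Compound, 48 h, 5 concentrations. 3) Linear interpolation between surrounding doses. 4) Unreached endpoint = highest concentration. TGI: total growth inhibition.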

Tests used:
Assay in all cases: NCI-60 cell line screen, 48 h
[1] = tested on: LXFL 529 NSCLC
[2] = tested on: KM12 colon
[3] = tested on: UO-31 renal
[4] = tested on: 786-0 renal
[5] = tested on: TK-10 renal
[6] = tested on: SF-295 CNS
[7] = tested on: DLD-1 colon
[8] = tested on: NCI-H23 lung
[9] = tested on: SK-MEL-5 melanoma
[10] = tested on: SF-268 CNS
[11] = tested on: HCT-116 colon
[12] = tested on: CAKI-1 renal
[13] = tested on: LOX IMVI melanoma
[14] = tested on: OVCAR-4 ovarian
[15] = tested on: OVCAR-3 ovarian
[16] = tested on: NCI-H460 lung
[17] = tested on: OVCAR-5 ovarian
[18] = tested on: A549 NSCLC
[19] = tested on: KM20L2 colon
[20] = tested on: MALME-3M melanoma
[21] = tested on: OVCAR-8 ovarian
[22] = tested on: COLO 205 colon
[23] = tested on: UACC-257 melanoma
[24] = tested on: SNB-78 CNS
[25] = tested on: NCI-H226 lung
[26] = tested on: K-562 leukemia
[27] = tested on: SW-620 colon
[28] = tested on: HCC-2998 colon
[29] = tested on: SNB-19 CNS
[30] = tested on: ACHN renal
[31] = tested on: DMS 273 small cell lung
[32] = tested on: UACC-62 melanoma
[33] = tested on: NCI-H522 lung
[34] = tested on: HCT-15 colon
[35] = tested on: HOP-62 NSCLC
[36] = tested on: HT29 colon
[37] = tested on: SK-MEL-2 melanoma
[38] = tested on: SF-539 CNS
[39] = tested on: M14 melanoma
[40] = tested on: MOLT-4 leukemia
[41] = tested on: HL-60(TB) leukemia
[42] = tested on: XF 498 CNS
[43] = tested on: M19-MEL melanoma
[44] = tested on: EKVX NSCLC
[45] = tested on: SN12C renal
[46] = tested on: A498 renal
[47] = tested on: CCRF-CEM leukemia
[48] = tested on: SK-MEL-28 melanoma
[49] = tested on: IGROV1 ovarian
[50] = tested on: SK-OV-3 ovarian
[51] = tested on: RPMI-8226 leukemia
[52] = tested on: DMS 114 small cell lung
[53] = tested on: U251 CNS
[54] = tested on: SR leukemia
[55] = tested on: HOP-92 NSCLC
[56] = tested on: RXF 393 renal

C/C(=C\c1ccccc1)C(O)C(=O)c1nc2ccc(Cl)cc2[nH]c1=O (stereo not drawn) showed a TGI [1] of over 100 µM, a TGI [2] of over 100 µM and a TGI [3] of over 100 µM. It also gave a TGI [4] of over 100 µM, a TGI [5] of over 100 µM and a TGI [6] of over 100 µM. It also gave a TGI [7] of over 100 µM, a TGI [8] of over 100 µM and a TGI [9] of over 100 µM. It also gave a TGI [10] of over 100 µM, a TGI [11] of over 100 µM and a TGI [12] of over 100 µM. It also gave a TGI [13] of over 100 µM, a TGI [14] of over 100 µM and a TGI [15] of over 100 µM. The TGI [16] was over 100 µM, the TGI [17] was over 100 µM and the TGI [18] was over 100 µM. For the same compound, the TGI [19] was over 100 µM, the TGI [20] was over 100 µM and the TGI [21] was over 100 µM. It also gave a TGI [22] of over 100 µM, a TGI [23] of over 100 µM and a TGI [24] of over 100 µM. For the same compound, the TGI [25] was over 100 µM, the TGI [26] was over 100 µM and the TGI [27] was over 100 µM. It also gave a TGI [28] of over 100 µM, a TGI [29] of over 100 µM and a TGI [30] of over 100 µM. It also gave a TGI [31] of over 100 µM, a TGI [32] of over 100 µM and a TGI [33] of over 100 µM. For the same compound, the TGI [34] was over 100 µM, the TGI [35] was over 100 µM and the TGI [36] was over 100 µM. The TGI [37] was over 100 µM, the TGI [38] was over 100 µM and the TGI [39] was over 100 µM. For the same compound, the TGI [40] was over 100 µM, the TGI [41] was over 100 µM and the TGI [42] was over 100 µM. For the same compound, the TGI [43] was over 100 µM, the TGI [44] was over 100 µM and the TGI [45] was over 100 µM. The TGI [46] was over 100 µM, the TGI [47] was 78.9 µM and the TGI [48] was over 100 µM. The TGI [49] was over 100 µM, the TGI [50] was over 100 µM and the TGI [51] was over 100 µM. The TGI [52] was over 100 µM, the TGI [53] was over 100 µM and the TGI [54] was over 100 µM.
Compound CC1=N/C(=C\c2ccc(C)cc2)C(=O)O1 has a TGI [1] of over 100 µM, a TGI [2] of over 100 µM and a TGI [3] of over 100 µM. For the same compound, the TGI [5] was over 100 µM, the TGI [6] was over 100 µM and the TGI [7] was over 100 µM. For the same compound, the TGI [8] was over 100 µM, the TGI [9] was over 100 µM and the TGI [12] was over 100 µM. The TGI [14] was over 100 µM, the TGI [15] was over 100 µM and the TGI [17] was over 100 µM. The TGI [19] was over 100 µM, the TGI [55] was over 100 µM and the TGI [20] was over 100 µM. It also gave a TGI [21] of over 100 µM, a TGI [22] of over 100 µM and a TGI [24] of over 100 µM. It also gave a TGI [26] of over 100 µM, a TGI [27] of over 100 µM and a TGI [28] of over 100 µM. For the same compound, the TGI [29] was over 100 µM, the TGI [32] was over 100 µM and the TGI [33] was over 100 µM. The TGI [34] was over 100 µM, the TGI [36] was over 100 µM and the TGI [37] was over 100 µM. It also gave a TGI [56] of over 100 µM, a TGI [39] of over 100 µM and a TGI [40] of over 100 µM. For the same compound, the TGI [42] was over 100 µM, the TGI [43] was over 100 µM and the TGI [45] was over 100 µM. For the same compound, the TGI [47] was over 100 µM, the TGI [48] was over 100 µM and the TGI [49] was over 100 µM. For the same compound, the TGI [50] was over 100 µM, the TGI [53] was over 100 µM and the TGI [54] was over 100 µM.
